Legend:
Assay type in all cases: functional
SR = experiment: Cytotoxicity against Homo sapiens (human) SR cells assessed as cellular growth at 10^-5 M after 48 hr by SRB assay relative to untreated control
T47D = experiment: Cytotoxicity against Homo sapiens (human) T47D cells assessed as cellular growth at 10^-5 M after 48 hr by SRB assay relative to untreated control
PC-3 = experiment: Cytotoxicity against Homo sapiens (human) PC3 cells assessed as cellular growth at 10^-5 M after 48 hr by SRB assay relative to untreated control
CCRF-CEM = experiment: Cytotoxicity against Homo sapiens (human) CCRF-CEM cells assessed as cellular growth at 10^-5 M after 48 hr by SRB assay relative to untreated control
SF-295 = experiment: Cytotoxicity against Homo sapiens (human) SF295 cells assessed as cellular growth at 10^-5 M after 48 hr by SRB assay relative to untreated control
BT-549 = experiment: Cytotoxicity against Homo sapiens (human) BT549 cells assessed as cellular growth at 10^-5 M after 48 hr by SRB assay relative to untreated control
IGROV-1 = experiment: Cytotoxicity against Homo sapiens (human) IGROV1 cells assessed as cellular growth at 10^-5 M after 48 hr by SRB assay relative to untreated control
K562 = experiment: Cytotoxicity against Homo sapiens (human) K562 cells assessed as cellular growth at 10^-5 M after 48 hr by SRB assay relative to untreated control
RPMI-8226 = experiment: Cytotoxicity against Homo sapiens (human) RPMI8226 cells assessed as cellular growth at 10^-5 M after 48 hr by SRB assay relative to untreated control
HL-60(TB) = experiment: Cytotoxicity against Homo sapiens (human) HL-60(TB) cells assessed as cellular growth at 10^-5 M after 48 hr by SRB assay relative to untreated control
COLO 205 = experiment: Cytotoxicity against Homo sapiens (human) COLO205 cells assessed as cellular growth at 10^-5 M after 48 hr by SRB assay relative to untreated control
SK-OV-3 = experiment: Cytotoxicity against Homo sapiens (human) SKOV3 cells assessed as cellular growth at 10^-5 M after 48 hr by SRB assay relative to untreated control

Compound | Activity (SR) [%] | Activity (T47D) [%] | Activity (K562) [%] | also measured
COC(=O)[C@]12CCC(C)(C)C[C@H]1C1=CC[C@@H]3[C@@]4(C)CCC(=O)C(C)(C)[C@@H]4CC[C@@]3(C)[C@]1(C)CC2 | 63.87 | 75.65 |  | Activity (PC-3): 85.25%
COC(=O)[C@]12CCC(C)(C)C[C@H]1C1=CC[C@@H]3[C@@]4(C)CC/C(=N\OC(=O)CN5C(=O)CSC5=S)C(C)(C)[C@@H]4CC[C@@]3(C)[C@]1(C)CC2 |  |  |  | Activity (CCRF-CEM): 56.34%
COC(=O)[C@]12CCC(C)(C)C[C@H]1C1=CC[C@@H]3[C@@]4(C)CC/C(=N\OC(=O)CCCCCN5C(=O)CSC5=S)C(C)(C)[C@@H]4CC[C@@]3(C)[C@]1(C)CC2 | 42.83 | 76.91 |  | 
COC(=O)[C@]12CCC(C)(C)C[C@H]1C1=CC[C@@H]3[C@@]4(C)CC/C(=N\OC(=O)CN5C(=O)/C(=C/c6ccc(OC)cc6)SC5=S)C(C)(C)[C@@H]4CC[C@@]3(C)[C@]1(C)CC2 |  |  |  | Activity (SF-295): 72.97%; Activity (BT-549): 67.36%
COC(=O)[C@]12CCC(C)(C)C[C@H]1C1=CC[C@@H]3[C@@]4(C)CC/C(=N\OC(=O)CCN5C(=O)/C(=C/c6ccc(N(C)C)cc6)SC5=S)C(C)(C)[C@@H]4CC[C@@]3(C)[C@]1(C)CC2 |  |  |  | Activity (IGROV-1): 82.21%
CC1(C)CC[C@]2(C(=O)O)CC[C@]3(C)C(=CC[C@@H]4[C@@]5(C)CC/C(=N\OC(=O)CC6SC(=O)NC6=O)C(C)(C)[C@@H]5CC[C@]43C)[C@@H]2C1 (some centres undefined) | 54.18 |  | 54.55 | 
CC1(C)CC[C@]2(C(=O)N3CCOCC3)CC[C@]3(C)C(=CC[C@@H]4[C@@]5(C)CC/C(=N\OC(=O)CC6SC(=O)NC6=O)C(C)(C)[C@@H]5CC[C@]43C)[C@@H]2C1 (some centres undefined) | 48.74 | 29.41 |  | Activity (RPMI-8226): 21.46%; Activity (HL-60(TB)): 42.47%
CC1(C)CC[C@@]23CC[C@]4(C)[C@@](OC2=O)([C@@H]3C1)[C@@H](Br)C[C@@H]1[C@@]2(C)CC/C(=N\OC(=O)/C=C3/SC(=O)NC3=O)C(C)(C)[C@@H]2CC[C@]14C | 29.41 | 24.85 | 27.12 | Activity (RPMI-8226): 26.82%; Activity (HL-60(TB)): 26.14%
CC1(C)CC[C@@]23CC[C@]4(C)[C@@](OC2=O)([C@@H]3C1)[C@@H](Br)C[C@@H]1[C@@]2(C)CCC(=O)C(C)(C)[C@@H]2CC[C@]14C |  |  | 78.11 | Activity (COLO 205): 302.68%; Activity (SK-OV-3): 335.31%; Activity (SF-295): 270.75%
